The test system of assay [1] is P. falciparum 3D7. Briefly: Antiplasmodial SYBR Green I proliferation assay, P. falciparum 3D7. Format: cell-based, Plasmodium falciparum. Particulars: read-out: IC50 Pf3D7. The source says:
(§1) Antiplasmodial activity against P. falciparum 3D7 (A, C and E) and P. falciparum Dd2 (B, D, F). […] Curves were plotted using non-linear regression based on means from three independent experiments measured in triplicate. Error bars indicate standard deviation, whose values are provided in the respective table.
(§2) Plasmodium falciparum culture and antiplasmodial activity. […] Development, parasitaemia, and morphology of parasites were monitored by light microscopy of thin blood smears stained according to the Romanowsky method (Panótico Rápido staining kit; Laborclin, Pinhais, Paraná, Brazil). […] Fresh 0^+ blood was generously provided by “Hospital Novo Atibaia” (Atibaia, SP, Brazil), and approved by the ethics committee at ICB-USP. The antiplasmodial effect of all compounds was validated against P. falciparum 3D7 strain conducting SYBR Green I (Invitrogen) drug assays as previously reported[30],[46] as a modification of the original procedure. […] Parasite proliferation was measured by the DNA load via fluorescence, using 100 μL of a lysis buffer with SYBR Green I (0.02% v/v) and incubated for 1 h at room temperature in the dark. […] Focal and gain adjustment was performed using the non-treated controls (highest expected fluorescence signal). Data was acquired via the CLARIOstar (V5.20) and MARS software, manually scaled to 0–100%, and plotted using GraphPad Prism (v9.5.2 for Windows, GraphPad Software, La Jolla California USA, www.graphpad.com). Non-treated parasites, the highest solvent concentration on parasites, CQ on parasites, and the highest drug concentration in the medium were used as controls for maximal growth, solvent control, positive biological control, and native drug fluorescence, respectively.

A further assay deals with P. falciparum Dd2. The assay can be described thus: Antiplasmodial SYBR Green I proliferation assay, P. falciparum Dd2. Format: cell-based. To be noted: Plasmodium falciparum.
Description: as §1, §2

In a further assay the test system is HepG2 cells. The assay can be described thus: Cytotoxicity in human HepG2 cells (WST-1). Format: cell-based. To be noted: read-out: IC50 HepG2. Here is the method: Cytotoxicity in human HepG2 cells.[47] […] Cytotoxic effects of compounds were assessed using the cell proliferation reagent WST-1 (Roche; CELLPRO-RO) in a 96-well plate-based screening assay. HepG2 cells were seeded at 10^4 cells/well (100 μL) in 96-well flat-bottom plates (Sarstedt) the night before the experiment to allow attachment of cells. The next day, two-fold serial dilutions of compounds were prepared in fresh medium in an extra plate, and the medium of cells was replaced by the medium containing the compound dilutions. Non-treated cells (max. proliferation), cells treated with the maximal solvent concentration (DMSO; solvent control), and medium with the maximal compound concentration (native absorbance) used as controls. […] Subsequently, 10 μL WST-1 was added to each well and plates were incubated for additional 4 h under standard conditions. WST-1 is a tetrazolium salt and is metabolised by the mitochondrial succinate-tetrazolium-reductase system of living cells and forms formazan, whose absorbance was measured at 450 nm. Absorbance at 630 nm was assessed to check for protein and precipitation background. Both measurements were acquired via the CLARIOstar (V5.20) and MARS software, manually scaled to 0–100%, and plotted with GraphPad Prism (version 9.5.2 for Windows, GraphPad Software, La Jolla California USA).
On the technique in general: Formazan colour is commonly taken as a measure of viable cells.

A further assay deals with T1, PfHDAC1 (Plasmodium falciparum, UniProt Q7K6A1).
T1 construct: purchased BPS Bioscience (San Diego, CA)
T1 sequence (Q7K6A1 1-449): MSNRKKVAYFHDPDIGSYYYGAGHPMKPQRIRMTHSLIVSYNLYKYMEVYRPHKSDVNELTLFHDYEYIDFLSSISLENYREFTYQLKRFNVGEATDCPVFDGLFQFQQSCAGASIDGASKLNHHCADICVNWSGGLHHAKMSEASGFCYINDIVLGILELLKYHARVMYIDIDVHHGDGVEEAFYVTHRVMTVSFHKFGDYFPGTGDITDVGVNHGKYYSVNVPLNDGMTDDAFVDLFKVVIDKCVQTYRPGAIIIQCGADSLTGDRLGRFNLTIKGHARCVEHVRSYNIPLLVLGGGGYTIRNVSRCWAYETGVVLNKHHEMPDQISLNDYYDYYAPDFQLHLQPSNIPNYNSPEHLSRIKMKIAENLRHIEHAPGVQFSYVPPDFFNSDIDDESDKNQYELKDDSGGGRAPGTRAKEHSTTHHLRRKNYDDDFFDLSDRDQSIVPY
Briefly: In vitro PfHDAC1 enzymatic assay. Format: biochemical. Here is the method: In vitro PfHDAC1 enzymatic assay. PfHDAC inhibition assays were performed by BPS Bioscience (San Diego, CA). […] Then, each DMSO solution was directly diluted 10 × fold into the HDAC assay buffer for an intermediate dilution of 10% DMSO in HDAC assay buffer. Then, 5 µL of the intermediate dilution was added to a 50 µL reaction so that the final concentration of DMSO is 1% in all the reactions. […] Fluorescence intensity was measured at an excitation of 360 nm and an emission of 460 nm using a Tecan Infinite M1000 microplate reader. […] The fluorescent intensity data were analyzed using GraphPad Prism (v9.5.2). In the absence of the compound, the fluorescent intensity (Ft) in each data set was defined as 100% activity. In the absence of HDAC, the fluorescent intensity (Fb) in each data set was defined as 0% activity. The percent activity in the presence of each compound was calculated according to the following equation: % activity = (F-Fb)/(Ft-Fb), where “F” is the fluorescent intensity in the presence of the compound.

The subject of a further assay is acetylated histone H3. The assay can be described thus: Western blot of acetylated histone H3 in infected erythrocytes. Format: cell-based, Plasmodium falciparum. To be noted: 10 × IC50 for 4 h, trophozoites, vs DMSO. Here is the method:
(§3) Figure 5 Hydroxamic acid derivatives as potent in vitro PfHDAC1 inhibitors. […]. Enzyme activity was calculated by normalizing the data against the DMSO treated samples and discounting the background. Data are presented as shown above, with mean ± S.D. (n = 2). […]. Comparison of group/concentration against the DMSO control is represented as † for P < 0.0001. […]. Numbers on side of the bands represent the predicted mass (kDa) for each protein. (C,D) Band quantification of histone H3 (C) and H4 (D), respectively, normalizing their acetylated detection against their unmodified version. Differences to this value were analyzed by one way ANOVA using the Dunnett’s post correction, comparing each group against the DMSO control, as rank tests where P values are explicitly depicted.
(§4) Western Blot analysis. […]. Proteins were transferred to PVDF membranes, 5% non-fat dry milk in TBS with Tween 20 (0.1%) was used as blocking agent for 1 h at room temperature. After, incubated with the antibodies overnight at 4 °C (Acetyl Histone H3 Lys9 C5B11 Cell Signaling, Acetyl Histone H4 Lys16 E2B8W Cell Signaling, Histone H3 96C10 Cell Signaling and Histone H4 D2X4V Cell Signaling). For the analysis of protein acetylation levels, the membranes were stripped and re-probed with the corresponding anti-total protein. Mouse monoclonal anti-α-Tubulin (B512 Sigma-Aldrich) was used as loading control. Detection was performed by enhanced chemiluminescence using horseradish peroxidase-conjugated secondary antibodies (Vector Laboratories, Burlingame, CA, USA) and SuperSignal TM West Pico PLUS Chemiluminescent substrate kit (Thermo Scientific). Images were acquired using ChemiDoc TM Imaging System (BioRad Laboratories, CA, USA). Quantitative densitometry was carried out using ImageLab software (Bio-Rad Laboratories, CA, USA). The volume density of the chemiluminescent bands was calculated as an integrated optical density × mm^2 after background correction from each independent experiment (N = 3).
Background: A western blot detects proteins with antibodies after separation by electrophoresis.

The next assay concerns acetylated histone H4. The assay can be described thus: Western blot of acetylated histone H4 in infected erythrocytes. Particulars: 10 × IC50 for 4 h, trophozoites, vs DMSO. Format: cell-based, Plasmodium falciparum. Here is the method:
as §3, §4

The subject of assay [2] is P. falciparum 3D7. To be noted: Fig. 1A; cited from earlier work.

The values that follow come from paper PMC10687260, “1,3-Diphenylureido hydroxamate as a promising scaffold for generation of potent antimalarial histone deacetylase inhibitors” (Scientific Reports, 2023).

Where two headings read alike, the source gives them in different places.

The IC50 is the concentration needed to halve the response being measured. For the compound `CCN(CC)CCCC(C)Nc1ccnc2cc(Cl)ccc12` (centres unmarked) [Chloroquine, reference compound], the IC50 in the assay on P. falciparum 3D7 [1] (Plasmodium falciparum, 3D7, 96 h) is 15 nM; in the assay with P. falciparum Dd2 (DD2, read-out: IC50 P. falciparum Dd2), 430 nM; with HepG2 cells (Homo sapiens, HepG2, 48 h), over 100000 nM.

As usually defined, the inhibition is the share of the control response that was lost under treatment. `CCCCN(Cc1ccc(C(=O)NO)cc1)C(=O)Nc1ccccc1` [Nexturastat A (16), Nexturastat A, reference compound]: the IC50 in the assay with P. falciparum 3D7 [1] (96 h, values in brackets 95% confidence intervals) was found to be 230 nM; in the assay on P. falciparum 3D7 [1] (Plasmodium falciparum, 3D7, 96 h, 96 h, values in brackets 95% confidence intervals), 210 nM; with P. falciparum Dd2 (DD2, multidrug/CQ-resistant strain, read-out: IC50 P. falciparum Dd2), 290 nM; in the assay with HepG2 cells (Homo sapiens, HepG2, 48 h, WST-1) it was 21500 nM. The inhibition at 1 µM at PfHDAC1 (recombinant PfHDAC1) turned out to be 58%. Also, the inhibition at 10 µM on PfHDAC1 (10 µM, recombinant PfHDAC1) was found to be 92%. Also, the “Acetylated-H3 level (normalised to unmodified H3)” value in the assay on acetylated histone H3 is “non-statistically significant increase”. In addition, the “Acetylated-H4 level (normalised to unmodified H4)” value in the assay with acetylated histone H4 is “non-statistically significant increase”.

As to `O=C(CCCCCCC(=O)Nc1ccccc1)NO` [Vorinostat (SAHA, 1), Vorinostat, reference compound], the IC50 with HepG2 cells (48 h, WST-1) was 2870 nM; on PfHDAC1, 100 to 1000 nM. Further, the inhibition at 1 µM at PfHDAC1 (recombinant PfHDAC1) is 83%. Besides, the “Acetylated-H3 level (normalised to unmodified H3)” value in the assay with acetylated histone H3 is listed as “non-statistically significant increase”. Further, the “Acetylated-H4 level (normalised to unmodified H4)” value with acetylated histone H4 is “non-statistically significant increase”.

Consider `O=C(/C=C/c1cccc(S(=O)(=O)Nc2ccccc2)c1)NO` [belinostat], for which, in the assay with P. falciparum 3D7 [2], the IC50 was 60 nM.

In the case of `Nc1ccccc1NC(=O)c1ccc(CNC(=O)OCc2cccnc2)cc1` [entinostat], the IC50 in the assay with P. falciparum 3D7 [2] is 7800 nM.

With `Cc1[nH]c2ccccc2c1CCNCc1ccc(/C=C/C(=O)NO)cc1` [panobinostat], the IC50 in the assay on P. falciparum 3D7 [2] is 10 nM.

Turning to `Cn1cc(CNCC2CCN(c3ncc(C(=O)NO)cn3)CC2)c2ccccc21` [quisinostat], in the assay with P. falciparum 3D7 [2], the IC50 was 5 nM.
